Reference: publication PMC7004140, “In vitro hepatotoxicity of Petasites hybridus extract (Ze 339) depends on the concentration, the cytochrome activity of the cell system, and the species used” (Phytotherapy Research, 2019)

Legend:
HepaRG cells [1] = assay: Coincubation of Ze 339 with single cytochrome inhibitors in HepaRG cells (WST-1); format: cell-based, human; conditions: inhibitor 10 μM, Ze 339 100 μg/ml, 4 hr
Experimental: To investigate whether metabolic activation by human phase I enzymes—at least in part—contributes to the cytotoxic effect, Ze 339 (concentrations up to 100 μg/ml) was coincubated in HepaRG cells for 4 hr with different single cytochromes inhibitors: ketoconazole (CYP3A4), sulfaphenazole (CYP2C9), montelukast (CYP2C8), omeprazole (CYP2C19), α‐naphthoflavone (CYP1A2), quinidine (CYP2D6), xanthotoxin (CYP2A6), chlormethiazole (CYP2E1), and ticlopidine (CYP2B6)—(each at a concentration of 10 μM). Inhibition of metabolic activity was evaluated with the WST‐1 assay using Ze 339 without inhibitor as a control.

HepG2 cells = assay: WST-1 metabolic activity (cytotoxicity) in HepG2 cells; format: cell-based, human; conditions: HepG2, up to 250 μM, 4 hr
Experimental: (§1) HepG2 and H‐4‐II‐E cells were differentiated for 24 hr. HepaRG cells were directly seeded in precoated 96‐well microtiter plates and were incubated in William's medium with general purpose supplements according to manufacturer's manual until adherence. All cells were treated with Ze 339 (up to 100 μg/ml) or petasin, isopetasin, neopetasin, petasol, isopetasol, petasin mixture, fatty acid mixture, and reconstituted extracts (up to 250 μM) for 4 hr.
(§2) In the three cell lines, cytotoxicity was defined as a decrease in metabolic activity of ≥20% in the WST‐1 assay. At the end of the experiment, 10 μl WST‐1 reagent was added to each well. Plates were then incubated for 2 hr to allow for the reduction of WST‐1 reagent. Absorbance was measured using a microplate absorbance reader (Infinite M 200, Tecan Trading Ltd., Switzerland) at 450 nm, reference wavelength of 620 nm. Due to some matrix effect, the lowest concentration (0.02 μg/ml for Ze 339 and 3.9 μM for single constituents and mixtures) of each substance tested was defined as 100% metabolic activity. Results were expressed as percentage of the control metabolic activity, and data were presented as mean values ± SEM (n = 3–6).
(§3) Concentration‐response analysis was done using the sigmoidal Hill equation: E(t) = E0 − Emax × C(t)^N/(IC50 ^N + C(t)^N), where E is the effect at time t, E0 the effect at baseline (time = 0), IC50 the concentration yielding 50% of the maximal effect (Emax), and N denotes the sigmoidicity coefficient (Origin 2017 Software). For statistical analysis, analysis of variance with Dunnett's multicomparison test was used to correct for multiplicity of testing (IBM SPSS Statistics software, version 25, IBM Corp., USA). The level of significance was ^* p < .05, ^** p < .01 and ^*** p < .001; NS = no significance.

H-4-II-E cells = assay: WST-1 metabolic activity (cytotoxicity) in H-4-II-E cells; format: cell-based, rat (Rattus norvegicus)
Experimental: as §1, §2, §3

HepaRG cells [2] = assay: WST-1 metabolic activity (cytotoxicity) in HepaRG cells; format: cell-based, human; conditions: 4 hr
Experimental: as §1, §2, §3

## CC(C)(O)c1ccccc1CC[C@@H](SCC1(CC(=O)O)CC1)c1cccc(/C=C/c2ccc3ccc(Cl)cc3n2)c1 [montelukast]
HepaRG cells [1]
  effect of cytochrome inhibitor on the cytotoxic effect of Ze 339: attenuated

## C=C(C)[C@@H]1C[C@@]2(C)C(=CC1=O)CC[C@@H](O)[C@@H]2C [petasol]
HepG2 cells
  cytotoxic effects: did not show cytotoxic effects
H-4-II-E cells; concentrations ≥125 μM
  metabolic activity: up to 109%
H-4-II-E cells; medium concentrations 15.6–62.5 μM
  change in metabolic activity: slight decrease
HepaRG cells [2]; 250 μM
  metabolic activity: 68.6%

## C=C[C@H]1C[N@@]2CC[C@H]1C[C@@H]2[C@@H](O)c1ccnc2ccc(OC)cc12 [quinidine]
HepaRG cells [1]
  effect of cytochrome inhibitor on the cytotoxic effect of Ze 339: attenuated

## CC(C)=C1C[C@@]2(C)C(=CC1=O)CC[C@@H](O)[C@@H]2C [isopetasol]
HepG2 cells
  cytotoxic effects: did not show cytotoxic effects
H-4-II-E cells; from 7.8 to 125 μM
  change in metabolic activity: increase in metabolic activity
H-4-II-E cells; highest concentration
  change in metabolic activity: virtually no change
HepaRG cells [2]; highest concentration
  cytotoxicity: not cytotoxic
